Experimental data from PubChem BioAssay AID248 (DTP/NCI, 2004).
Toxic doses and inconclusive results are not listed. No stated cut-off is given here; in the data, active means T/C of 150% or more; inactive means T/C below 125%. Square brackets hold non-standard residues; d marks the D form. Peptide text beside a SMILES is read from it. * marks the point of attachment. ξ: configuration not given here. Cbz = O=C(OCc1ccccc1)*; ξL = CC(C)CC(N)C(=O)O

System: L1210 leukemia ip in BDF1 mice, survival T/C
Assay: NCI In Vivo Anticancer Drug Screen. Data for tumor model L1210 Leukemia (intraperitoneal) in B6D2F1 (BDF1) mice
Details: endpoint: mean survival time, higher = longer survival
How it was run: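 Each compound was tested against a transplantable tumor grown in mice. The endpoint was survival, with treated animals benchmarked against vehicle controls as a simple ratio.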

[1] = dose: 100.0 mg/kg/injection, schedule: Q01DX009 (ip), vehicle: saline
[2] = dose: 100.0 mg/kg/injection, schedule: Q04DX003 (ip), vehicle: saline
[3] = dose: 200.0 mg/kg/injection, schedule: Q04DX003 (ip), vehicle: saline
[4] = dose: 400.0 mg/kg/injection, schedule: Q04DX003 (ip), vehicle: saline
[5] = dose: 100.0 mg/kg/injection, schedule: Q04DX003 (ip), vehicle: Klucel (hydroxypropylcellulose) (HPC)
[6] = dose: 200.0 mg/kg/injection, schedule: Q04DX003 (ip), vehicle: Klucel (hydroxypropylcellulose) (HPC)
[7] = dose: 400.0 mg/kg/injection, schedule: Q04DX003 (ip), vehicle: Klucel (hydroxypropylcellulose) (HPC)
[8] = dose: 75.0 mg/kg/injection, schedule: Q01DX001 (ip), vehicle: carboxymethylcellulose (CMC)
[9] = dose: 100.0 mg/kg/injection, schedule: Q01DX001 (ip), vehicle: saline
[10] = dose: 200.0 mg/kg/injection, schedule: Q01DX001 (ip), vehicle: saline
[11] = dose: 400.0 mg/kg/injection, schedule: Q01DX001 (ip), vehicle: saline
[12] = dose: 50.0 mg/kg/injection, schedule: Q04DX003 (ip), vehicle: saline with Tween-80

Measured: T/C

CCn1c(O)c(C=N)c(=O)n(CC)c1=O
inactive: [1] 95 % of control | [2] 106 % of control | [3] 93 % of control | [4] 113 % of control

COC(=O)C(CC(C)C)NC(=O)CNC(=O)CNC(=O)OCc1ccccc1 (stereo not drawn) (Cbz-Gly-Gly-[ξL]-OMe)
inactive: [5] 105 % of control | [6] 96 % of control | [7] 96 % of control

COC(=O)/C(O)=C/C(N)=O.COC(=O)/C(O)=C/C(N)=O.[Cu]
inactive: dose: 9.37 mg/kg/injection, schedule: Q01DX001 (ip), vehicle: carboxymethylcellulose (CMC) 89 % of control | dose: 18.75 mg/kg/injection, schedule: Q01DX001 (ip), vehicle: carboxymethylcellulose (CMC) 87 % of control | dose: 37.5 mg/kg/injection, schedule: Q01DX001 (ip), vehicle: carboxymethylcellulose (CMC) 96 % of control

CCOC(=O)c1ccc(NC(=O)N(C)N=O)cc1
inactive: [8] 121 % of control

CCCS(=O)(=O)c1ccc(C)cc1
inactive: [9] 98 % of control | [1] 94 % of control | dose: 100.0 mg/kg/injection, schedule: Q04DX003 (ip), vehicle: acetone 100 % of control | [10] 98 % of control | dose: 200.0 mg/kg/injection, schedule: Q01DX009 (ip), vehicle: saline 93 % of control | dose: 200.0 mg/kg/injection, schedule: Q04DX003 (ip), vehicle: acetone 102 % of control | [11] 107 % of control | dose: 400.0 mg/kg/injection, schedule: Q01DX009 (ip), vehicle: saline 93 % of control | dose: 400.0 mg/kg/injection, schedule: Q04DX003 (ip), vehicle: acetone 100 % of control

Cc1ccccc1C(C)(O)Cc1nccn1Cc1ccccc1 (stereo not given)
inactive: [2] 90 % of control | [3] 95 % of control | [4] 103 % of control

c1ccc(-c2ccc([Si](c3ccc(-c4ccccc4)cc3)(c3ccc(-c4ccccc4)cc3)c3ccc(-c4ccccc4)cc3)cc2)cc1
inactive: dose: 12.5 mg/kg/injection, schedule: Q01DX009 (ip), vehicle: gum acacia 95 % of control | dose: 12.5 mg/kg/injection, schedule: Q04DX003 (ip), vehicle: gum acacia 106 % of control | dose: 25.0 mg/kg/injection, schedule: Q01DX009 (ip), vehicle: gum acacia 100 % of control | dose: 25.0 mg/kg/injection, schedule: Q04DX003 (ip), vehicle: gum acacia 95 % of control | dose: 50.0 mg/kg/injection, schedule: Q01DX009 (ip), vehicle: gum acacia 86 % of control | dose: 50.0 mg/kg/injection, schedule: Q04DX003 (ip), vehicle: gum acacia 92 % of control

Cc1cc(C(=O)O)c(C)cc1SSc1cc(C)c(C(=O)O)cc1C
inactive: [8] 94 % of control | dose: 150.0 mg/kg/injection, schedule: Q01DX001 (ip), vehicle: carboxymethylcellulose (CMC) 94 % of control | dose: 300.0 mg/kg/injection, schedule: Q01DX001 (ip), vehicle: carboxymethylcellulose (CMC) 88 % of control

CN(C)C1=NS(=O)(=O)N=C(N(C)c2ccccc2)O1
inactive: dose: 100.0 mg/kg/injection, schedule: Q01DX001 (ip), vehicle: Klucel (hydroxypropylcellulose) (HPC) 109 % of control | [5] 97 % of control | dose: 200.0 mg/kg/injection, schedule: Q01DX001 (ip), vehicle: Klucel (hydroxypropylcellulose) (HPC) 101 % of control | [6] 105 % of control | dose: 400.0 mg/kg/injection, schedule: Q01DX001 (ip), vehicle: Klucel (hydroxypropylcellulose) (HPC) 103 % of control | [7] 103 % of control

ClC1=C(Cl)C2(Cl)C(c3ccccc3)=CC1(Cl)C2(Cl)Cl (stereo not given)
inactive: dose: 100.0 mg/kg/injection, schedule: Q01DX009 (ip), vehicle: gum acacia 93 % of control | dose: 100.0 mg/kg/injection, schedule: Q04DX003 (ip), vehicle: gum acacia 114 % of control | dose: 200.0 mg/kg/injection, schedule: Q01DX009 (ip), vehicle: gum acacia 90 % of control | dose: 200.0 mg/kg/injection, schedule: Q04DX003 (ip), vehicle: gum acacia 99 % of control | dose: 400.0 mg/kg/injection, schedule: Q01DX009 (ip), vehicle: gum acacia 100 % of control | dose: 400.0 mg/kg/injection, schedule: Q04DX003 (ip), vehicle: gum acacia 92 % of control

O=C(Nc1ccc(C2=NCCO2)cc1)c1ccc(C(=O)Nc2ccc(C3=NCCO3)cc2)cc1
inactive: dose: 15.0 mg/kg/injection, schedule: Q01DX Z (ip), vehicle: carboxymethylcellulose (CMC) 105 % of control | dose: 30.0 mg/kg/injection, schedule: Q01DX Z (ip), vehicle: carboxymethylcellulose (CMC) 96 % of control | dose: 60.0 mg/kg/injection, schedule: Q01DX Z (ip), vehicle: carboxymethylcellulose (CMC) 91 % of control | dose: 120.0 mg/kg/injection, schedule: Q01DX Z (ip), vehicle: carboxymethylcellulose (CMC) 96 % of control

COc1ccc(S(=O)(=O)N=[N+]=[N-])cc1
inactive: [9] 103 % of control | [10] 95 % of control

O=NN(CCCl)C(=O)Nc1cc2c3ccccc3ccc2c2ccccc12
inactive: dose: 177.0 mg/kg/injection, schedule: Q01DX009 (ip), vehicle: carboxymethylcellulose (CMC) 123 % of control

CSc1ccc(NC(=O)c2ccc(C(=O)Nc3ccc(SC)cc3)cc2)cc1
inactive: dose: 100.0 mg/kg/injection, schedule: Q01DX009 (ip), vehicle: Klucel (hydroxypropylcellulose) (HPC) 94 % of control | dose: 200.0 mg/kg/injection, schedule: Q01DX009 (ip), vehicle: Klucel (hydroxypropylcellulose) (HPC) 89 % of control | dose: 400.0 mg/kg/injection, schedule: Q01DX009 (ip), vehicle: Klucel (hydroxypropylcellulose) (HPC) 89 % of control

CS(=O)(=O)OCCN(CCOS(C)(=O)=O)c1ccc(N=O)c(Cl)c1
inactive: dose: 0.08 mg/kg/injection, schedule: Q01DX015 (ip), vehicle: saline 97 % of control | dose: 0.14 mg/kg/injection, schedule: Q01DX015 (ip), vehicle: saline 103 % of control | dose: 0.22 mg/kg/injection, schedule: Q01DX001 (ip), vehicle: saline 114 % of control | dose: 0.23 mg/kg/injection, schedule: Q01DX015 (ip), vehicle: saline 114 % of control | dose: 0.5 mg/kg/injection, schedule: Q01DX001 (ip), vehicle: saline 122 % of control | dose: 1.0 mg/kg/injection, schedule: Q01DX015 (ip), vehicle: saline 124 % of control | dose: 2.0 mg/kg/injection, schedule: Q01DX015 (ip), vehicle: saline 97 % of control | dose: 4.0 mg/kg/injection, schedule: Q01DX001 (ip), vehicle: saline 117 % of control | dose: 4.5 mg/kg/injection, schedule: Q01DX001 (ip), vehicle: saline 86 % of control

O=C1CC2CCC1C2Cl (stereo not given)
inactive: [12] 86 % of control | dose: 100.0 mg/kg/injection, schedule: Q01DX001 (ip), vehicle: saline with Tween-80 97 % of control | dose: 200.0 mg/kg/injection, schedule: Q01DX001 (ip), vehicle: saline with Tween-80 89 % of control

CCCCCCNC1=C(C)C(=O)C(NCCCCCC)=C(C)C1=O
inactive: [9] 104 % of control | [10] 104 % of control | [11] 93 % of control

Nc1ccnc(Cl)c1N
inactive: dose: 50.0 mg/kg/injection, schedule: Q01DX009 (ip), vehicle: saline with Tween-80 111 % of control | [12] 97 % of control | dose: 100.0 mg/kg/injection, schedule: Q01DX009 (ip), vehicle: saline with Tween-80 111 % of control | dose: 100.0 mg/kg/injection, schedule: Q04DX003 (ip), vehicle: saline with Tween-80 101 % of control | dose: 200.0 mg/kg/injection, schedule: Q01DX009 (ip), vehicle: saline with Tween-80 109 % of control | dose: 200.0 mg/kg/injection, schedule: Q04DX003 (ip), vehicle: saline with Tween-80 95 % of control
